Results taken from patent US11376271B1, “Methods of ameliorating the effects of alcoholic liver damage” (FULGENT LIFE INC., priority 2021, dated 2022).

Assays:
[1] = test system: male C57BL/6J mice; test: Tissue NAD+ content after intraperitoneal injection; assay type: in vivo; details: 250 mg/kg intraperitoneal, 4 hours
Method: In the below in vivo assays, C57BL/6J male mice (The Jackson Laboratory) (40 days of age) were used. They were kept under standard laboratory conditions with a temperature of 22±1° C., dark/light cycles of 12/12 h, and relative humidity of 55±5%. All animals had free access to food and water, except for indicated fasting periods (and where not indicated for fasting periods of 2 hours before administration).
[…] Specifically, ten 8-week-old male C57BL/6J mice (The Jackson Laboratory) were kept in polycarbonate cages under a 12-h light/dark cycle with free access to food and water. […] Four hours later, the blood samples were collected by cardiac puncture and the mice were executed. Liver, brain, muscle, and adipose tissues were collected, instantly frozen in liquid nitrogen, and then stored at −80° C. until performance of the NAD+ analyses. […] Four hours later, the mice were killed and tissue samples were collected. All animal studies were performed according to the Guidelines for the Care and Use of Experimental Animals. For this NAD+ assay, about 100 mg of frozen tissue was crushed in liquid nitrogen and ultrasonically homogenized in 7% perchloric acid, and then the solution was neutralized and subjected to the NAD+ determination described here.
Data are indicated as mean±SD.

[2] = test system: AML12 cells; test: NAD+/NADH ratio in AML12 cells; details: 1 mM, 6 h, vs control
[3] = test system: AML12 cells; test: Rescue from hydrogen peroxide (HP) genotoxicity: cell survival and NAD+ level; assay type: cell-based; details: 500 μM HP + 250 μM compound, 3 h, AML12 cells
Method: Because the increasing extent of NAD+ concentration is of interest, whether NADH can improve the cell survival rate under the stressful conditions of depletion of NAD+ was also assessed. To that end, as genotoxicity can lead to DNA damage, activate poly(ADP-ribose) polymerases and induce NAD+ depletion, genotoxicity was tested. Strong genotoxicity will lead to severe consumption of NAD+ by cells, resulting in cell death. To test genotoxicity, AML12 cells were treated with 500 μM hydrogen peroxide (HP) for 3 hours in the presence or absence of 1 mM NADH, and then the cells were counted and NAD+ was detected in the samples co-treated with NADH (1 mM) or its vehicle. FIG. 4A is a graph comparing the cell survival rate of the HP treated cells, NADH treated cells, and the HP+NADH treated cells relative to a control. And FIG. 4B is a graph comparing the NAD+ level of the HP treated cells, NADH treated cells, and the HP+NADH treated cells relative to a control. The cell survival rates and cellular NAD+ levels in FIGS. 4A-B are expressed as mean±SD.
The effects of NADH and NMN at a lower concentration (250 μM) on AML12 cells was also tested in a separate assay. Specifically, AML12 cells were treated with 500 μM HP in the presence or absence of 250 μm NADH or NMN for 3 h. FIG. 4C is a graph comparing the cell survival rate of the HP treated cells, HP+NADH treated cells, and the HP+NMN treated cells relative to a control. And FIG. 4D is a graph comparing the NAD+ level of the HP treated cells, HP+NADH treated cells, and the HP+NMN treated cells relative to a control. The cell survival rate and cellular NAD+ levels in FIGS. 4C-D are expressed as mean±SD.

NC(=O)c1ccc[n+]([C@@H]2O[C@H](COP(=O)([O-])O)[C@@H](O)[C@H]2O)c1 [NMN, nicotinamide mononucleotide, reference compound]
increase of the concentration of NAD+ in the liver [1]: 170% | NAD+/NADH ratio [2]: significantly increase | effect on NAD+ levels under HP [3]: much worse than that of NADH | effect on cell survival under HP [3]: much worse than that of NADH
